Source: publication PMC8958501, “Hypothesis-Driven, Structure-Based Design in Photopharmacology: The Case of eDHFR Inhibitors” (Journal of Medicinal Chemistry, 2022)
Where two headings read alike, the source gives them in different places.

Key:
[1] = Thermal cis-to-trans isomerization (thermal half-life of the metastable cis isomer); format: physicochemical; conditions: thermal cis-to-trans isomerization, DMSO, 25 °C, 20 µM
Experimental: UV–vis absorption spectra were recorded on an Agilent 8453 UV–vis Spectrophotometer. Photochemical isomerization (photoswitching) was achieved by irradiation from the side in a fluorescence quartz cuvette (width = 1.0 cm) using a custom-built (Prizmatix/Mountain Photonics) multiwavelength fiber coupled LED system (FC6-LED-WL) including the following LEDs: 365A, 390B, 420Z, 445B, 535R, 630CA. A detailed description of the setup was published by us recently.[84] Alternatively, the samples were irradiated at 340 nm using the LOT Quantum design setup with 300 W Xe-Arc lamp, using the Thorlabs FB340-10 Bandpass filter. A Quantum Northwest TC1 temperature controller was used to maintain the temperature at 25 °C during photochemical studies. To analyze the fatigue resistance of the compounds, repeated irradiation cycles were performed using alternating wavelengths. The decrease and increase of the π–π* transition band was followed by UV–vis spectroscopy (Agilent 8453) at 25 °C while stirring. To determine the thermal lifetime for the metastable cis isomer, samples were irradiated with the custom-built setup until photostationary state (PSS) was reached. Then, the cuvettes were placed in a JASCO V750 spectrophotometer with a PTC 424S/15 temperature controller, and the recovery of the π–π* transition was followed while stirring at 25 °C (for solutions in DMSO and eDHFR assay buffer) or 37 °C (for solutions in 10 mM Tris-HCl buffer pH 7.0). The data were fitted using a first-order exponential function in OriginPro 2018. For the PSD determination by ^1H NMR spectroscopy, 0.5 mL of a 2 mM solution of the respective compound in DMSO-d6 was thermally equilibrated by briefly (∼10 s) heating the sample with a heat gun. Subsequently, the sample was irradiated in a glass NMR tube with a 365 nm hand-held lamp (Spectroline ENB-280C) or the LEDs of the custom-built setup. Detailed data are reported in the SI.

E. coli CS1562 = experiment: Antibacterial activity assay (MIC, bacterial growth curves); format: cell-based, Escherichia coli; conditions: for MIC: Escherichia coli; for light-induced difference in antibacterial activity (dark MIC vs irradiated MIC): irradiation with λ1 = 365 nm; for light-induced difference in antibacterial activity (dark MIC vs irradiated MIC) / MIC / bacterial growth inhibition, same in both forms: E. coli CS1562; for MIC / bacterial growth inhibition, same in both forms: both before and after irradiation with λ1 = 365 nm
Experimental: A culture of E. coli CS1562 was grown overnight in LB medium (10 g/L tryptone, 5 g/L yeast extract, 5 g/L NaCl) containing tetracycline (10 μg/mL) at 37 °C. The OD600 was measured, and the culture was diluted to 0.002 OD600 in LB medium. Series dilutions of the compounds were prepared in DMSO and diluted 25 times in sterile LB medium in a black sterile Eppendorf tube. […] Subsequently, the dark samples were added to the 96-well plate (100 μL, triplicates). Lastly, the LB medium containing E. coli CS1562 at 0.002 OD was added to every well (100 μL). The cells were grown overnight at 37 °C in a plate reader (Synergy H1, Biotek), and the OD600 was measured every 10 min with a 10 s shaking step before each measurement. The OD600 curves were background-corrected by subtracting the value at t = 0. […] Detailed data are reported in the SI.

eDHFR = molecular target: T1, eDHFR (Escherichia coli, UniProt P0ABQ4); experiment: biochemical; conditions: for light-induced change in eDHFR inhibition (dark IC50 vs irradiated IC50): irradiation with λ1 = 365 nm;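 on all read-outs here: purified E. coli DHFR colorimetric assay, enzyme with NADPH 3 min then inhibitor (10^-12 to 10^-5 M) 7 min, rate ΔAbs/s relative to DMSO control (1% v/v), triplicates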
T1 construct: made in house; host or cells: E. cloni EXPRESS BL21 (DE3) cells (Lucigen), pT7-SC1 plasmid
Experimental: A 10 mM stock solution of the inhibitor in DMSO was divided into two parts. One half was thermally adapted with a heat gun for 1 min to obtain only the trans isomer.
The compounds were tested as eDHFR inhibitors via a colorimetric assay (Sigma-Aldrich, Catalog No. CS0340). Instead of the human DHFR protein provided in the kit, the in-house purified eDHFR was used. In a 3 mL cuvette, eDHFR (∼20 ng) was incubated with NADPH (60 μM, final) for 3 min, followed by an incubation with the inhibitor (from 10^–5 to 10^–12 M, final) for an additional 7 min. […] The concentration of DMSO in the final volume was 1% v/v for all enzymatic reactions. The measurements were performed in triplicates. For the control enzymatic reactions, eDHFR was incubated with NADPH and DMSO (1% v/v, final). […] The related control enzymatic reaction was also performed under continuous irradiation with λ1 = 390 nm light. Linear regression was performed in Microsoft Excel to calculate ΔAbs/s. % eDHFR activity was calculated as the ratio between ΔAbs/s for the sample and ΔAbs/s for the control reaction. GraphPadPrism 5.0 (GraphPad Software, Inc., version 5.00) was used for the determination of the IC50 of each inhibitor. Nonlinear regression was used for data fitting.

[2] = light or radiation study, after irradiation with λ1 = 365 nm, E. coli CS1562, 24 h, read-out: MIC Light
[3] = light or radiation study, after irradiation, E. coli CS1562, 24 h, read-out: MIC (µM) after irradiation
[4] = light or radiation study, before irradiation, E. coli CS1562, 24 h, read-out: MIC (µM) before irradiation
[5] = dark, E. coli CS1562, 24 h, read-out: MIC Dark
[6] = DHFR inhibition IC50 (nM) before irradiation, before irradiation
[7] = IC50 Dark, dark-adapted (thermally adapted, trans isomer)
[8] = after irradiation, read-out: DHFR inhibition IC50 (nM) after irradiation
[9] = irradiated to PSS with λ1 (340 nm for 3, 365 nm for 6-15), read-out: IC50 Light
[10] = before irradiation, read-out: DHFR inhibition IC50 (nM) before irradiation
[11] = irradiated with λ1 (1: continuous irradiation at 390 nm), read-out: IC50 Light
[12] = no considerable activity up to, dark-adapted and irradiated states

T1 sequence (P0ABQ4 whole entry): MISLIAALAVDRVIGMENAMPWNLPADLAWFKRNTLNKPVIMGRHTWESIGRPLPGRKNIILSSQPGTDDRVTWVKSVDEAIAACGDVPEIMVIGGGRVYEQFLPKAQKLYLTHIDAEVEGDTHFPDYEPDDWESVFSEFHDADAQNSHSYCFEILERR

| Compound | melting point | t1/2 DMSO (25 °C) [1] | MIC (E. coli CS1562; [2]) | MIC (E. coli CS1562; [3]) | MIC (E. coli CS1562; [4]) | MIC (E. coli CS1562; [5]) | IC50 (eDHFR; [7]) | IC50 (eDHFR; [8]) | IC50 (eDHFR; [10]) | further results |
| --- | --- | --- | --- | --- | --- | --- | --- | --- | --- | --- |
| COC(C)(C#Cc1cnc(N)nc1N)c1ccc(/N=N/c2ccc(C(=O)O)c(Cl)c2)cc1 (stereo not drawn) [Compound 15, (E)-2-Chloro-4-{[4-(4-(2,4-diaminopyrimidin-5-yl)-2-methoxybut-3-yn-2-yl)phenyl]diazenyl}benzoic acid] | 245 °C (dec.) | > 24 h | 20 µM | 20 µM | 40 µM | 40 µM | 52 ± 11 nM | 27 ± 3.7 nM |  | light-induced difference in antibacterial activity (dark MIC vs irradiated MIC) (E. coli CS1562): 2 fold; IC50 (eDHFR; [6]): 52 ± 11 nM; IC50 (eDHFR; [9]): 27 ± 3.7 nM; light-induced change in eDHFR inhibition (dark IC50 vs irradiated IC50) (eDHFR): 2 fold |
| COc1cc(Cc2cnc(N)nc2N)cc(OC)c1OCc1cc(F)c(/N=N/c2c(F)cccc2F)c(F)c1 [TFAT, tetra-ortho-fluoroazobenzene trimethoprim, reference compound] |  |  |  |  |  |  |  | 1.7 ± 0.32 nM | 1.9 ± 0.61 nM |  |
| COc1cc(Cc2cnc(N)nc2N)cc(OC)c1OCc1cc(Cl)c(/N=N/c2c(Cl)cccc2Cl)c(Cl)c1 [TCAT, tetra-ortho-chloroazobenzene trimethoprim, reference compound] |  |  |  |  |  |  |  | 3.3 ± 2.1 nM | 3.8 ± 1.4 nM |  |
| Nc1ccnc(N)n1 [2,4-diaminopyrimidine, reference compound] |  |  |  |  |  |  |  |  |  | IC50 (eDHFR; fragment, no irradiation, read-out: IC50): 390000 ± 150000 nM |
| COc1cc(Cc2cnc(N)nc2N)cc(OC)c1OC [TMP, trimethoprim, reference compound] |  |  |  |  |  |  |  |  |  | MIC (E. coli CS1562; CS1562, light or radiation study, 24 h): 1.3 µM; MIC (E. coli CS1562; CS1562, light or radiation study, 24 h, read-out: MIC (µM) before irradiation): 1.3 µM |
| COC(C)(C#Cc1cnc(N)nc1N)c1ccc(/N=N/c2ccc(C(=O)O)c(C)c2)cc1 (stereo not drawn) [Compound 14, (E)-4-{[4-(4-(2,4-Diaminopyrimidin-5-yl)-2-methoxybut-3-yn-2-yl)phenyl]diazenyl}-2-methylbenzoic acid] | 240 °C (dec.) | > 24 h | 40 µM | 40 µM | 20 µM | 20 µM |  | 37 ± 14 nM | 77 ± 26 nM | light-induced change in eDHFR inhibition (dark IC50 vs irradiated IC50) (eDHFR): 2 fold |
| COC(C)(C#Cc1cnc(N)nc1N)c1ccc(/N=N/c2cccc(C(=O)O)c2)cc1 (stereo not drawn) [Compound 10, (E)-3-{[4-(4-(2,4-Diaminopyrimidin-5-yl)-2-methoxybut-3-yn-2-yl)phenyl]diazenyl}benzoic acid] | 190 °C (dec.) | > 24 h | 20 µM | 20 µM | 20 µM | 20 µM | 24 nM |  |  | MIC / bacterial growth inhibition, same in both forms (E. coli CS1562): 20 µM; IC50 (eDHFR; [9]): 57 nM |
| COC(C)(C#Cc1cnc(N)nc1N)c1ccc(/N=N/c2c(C)nn(C)c2C)cc1 (stereo not drawn) [Compound 9, (E)-5-(3-Methoxy-3-(4-((1,3,5-trimethyl-1H-pyrazol-4-yl)diazenyl)phenyl)but-1-yn-1-yl)pyrimidine-2,4-diamine] | 162 to 164 °C | > 24 h | 80 µM | 80 µM | 80 µM | 80 µM |  | 640 ± 510 nM | 220 ± 60 nM | light-induced difference in antibacterial activity (dark MIC vs irradiated MIC) (E. coli CS1562): did not display any light-dependent potency difference |
| Nc1ncc(-c2ccc(/N=N/c3ccccc3)cc2)c(N)n1 [Compound 2, (E)-5-[4-(Phenyldiazenyl)phenyl]pyrimidine-2,4-diamine] | 199 to 201 °C | 27 h |  |  |  |  | > 10000 nM | > 10000 nM | > 10000 nM | IC50 (eDHFR; [11]): > 10000 nM; IC50 (eDHFR; [12]): > 10000 nM |
| COC(C)(C#Cc1cnc(N)nc1N)c1ccc(/N=N/c2ccc(C)c(C(=O)O)c2)cc1 (stereo not drawn) [Compound 12, (E)-5-{[4-(4-(2,4-Diaminopyrimidin-5-yl)-2-methoxybut-3-yn-2-yl)phenyl]diazenyl}-2-methylbenzoic acid] | 221 °C (dec.) | > 24 h | 20 µM | 20 µM | 20 µM | 20 µM |  | 71 ± 18 nM | 13 ± 2.8 nM | light-induced change in eDHFR inhibition (dark IC50 vs irradiated IC50) (eDHFR): 5 fold |
| COC(C)(C#Cc1cnc(N)nc1N)c1ccc(/N=N/c2ccc(C(=O)O)cc2)cc1 (stereo not drawn) [Compound 11, (E)-4-{[4-(4-(2,4-Diaminopyrimidin-5-yl)-2-methoxybut-3-yn-2-yl)phenyl]diazenyl}benzoic acid] | 248 °C (dec.) | > 24 h | 40 µM | 40 µM | 40 µM | 40 µM | 58 ± 13 nM | 70 ± 39 nM |  | MIC / bacterial growth inhibition, same in both forms (E. coli CS1562): 40 µM; IC50 (eDHFR; [6]): 58 ± 13 nM; IC50 (eDHFR; [9]): 70 ± 39 nM; light-induced change in eDHFR inhibition (dark IC50 vs irradiated IC50) (eDHFR): not significant |
| Nc1ncc(/N=N/c2ccccc2)c(N)n1 [Compound 1, (E)-5-(Phenyldiazenyl)pyrimidine-2,4-diamine] | > 250 °C | 1.3 h |  |  |  |  | > 10000 nM | > 10000 nM | > 10000 nM | IC50 (eDHFR; [11]): > 10000 nM; IC50 (eDHFR; [12]): > 10000 nM |
| Nc1ncc(C#Cc2cccc(/N=N/c3ccccc3)c2)c(N)n1 [Compound 5, (E)-5-{[3-(Phenyldiazenyl)phenyl]ethynyl}pyrimidine-2,4-diamine] | 207 to 209 °C | > 24 h |  |  |  |  | 5300 nM |  |  | IC50 (eDHFR; [11]): 2600 nM |
| COc1ccc(/N=N/c2ccc(COc3c(OC)cc(Cc4cnc(N)nc4N)cc3OC)cc2)cc1 [PMAT, para-methoxyazobenzene trimethoprim, reference compound] |  |  |  |  |  |  | 2 ± 0.61 nM |  |  | IC50 (eDHFR; [9]): 2.5 ± 0.61 nM |
| Nc1ncc(C#Cc2ccc(/N=N/c3ccccc3)cc2)c(N)n1 [Compound 4, (E)-5-{[4-(Phenyldiazenyl)phenyl]ethynyl}pyrimidine-2,4-diamine] |  | 8.6 h |  |  |  |  | > 10000 nM | > 10000 nM | > 10000 nM | IC50 (eDHFR; [11]): > 10000 nM; IC50 (eDHFR; [12]): > 10000 nM |
